# System: RSV A2
# Experiment: RSV inhibition (cytopathic effect) in HEp-2 cells using Viral ToxGlo assay
# Format: cell-based
# Conditions: human respiratory syncytial virus; RSV A2, HEp-2 cells, MOI 0.5, 72 h p.i.
# Procedure: Protocol for Screening Antiviral Compounds for RSV Inhibition and Cytotoxicity Using Viral ToxGlo Assay
# HEp-2 cells were maintained in Eagle's minimum essential medium (EMEM) with Earle's BSS adjusted to contain 2 mM L-glutamine, 10% fetal bovine serum, 100 U/ml penicillin and 100 μg/ml streptomycin. For the purposes of the screening assay they were grown to 90% confluency, trypsinized and recovered. The trypsin was neutralised with cell culture media and cells were centrifuged at 150×g for 5 minutes before discarding the supernatant and resuspending cell pellet in assay media (EMEM with Earle's BSS adjusted to contain 2 mM L-glutamine, 2% fetal bovine serum and 100 U/ml penicillin and 100 μg/ml streptomycin). The cells were seeded into white clear-bottomed cell culture plates at a density of 1.5×10^4 cells/well in 50 μl and 4×10^3 cells/well in 25 μl for 96 well plates and 384 well plates respectively. For the media/background control column assay media only was added. Cell plates were placed in a humid chamber and incubated overnight at 37° C./5% CO2. After overnight incubation cells were checked for confluency and healthy appearance.
# Test articles were made up at 10× test concentration in a maximum DMSO concentration of 10% (final assay concentration maximal 1% DMSO) and added to the cell plates in volumes of 10 μl for 96 well plates and 5 μl for 384 well plates. For cell control and virus control wells the test article solvent only was added. Virus or assay media for cytotoxicity test wells and media/cell control wells was added immediately after test articles at an MOI of 0.5, 40 or 20 μl for 96 and 384 well plates respectively. Virus suspension was prepared by thawing RSV A2 frozen stocks and diluting to the required concentration of plaque forming units in assay media on ice.
# Cell plates were further incubated inside a humid chamber for 72 h p.i at 37° C./5% CO2. After the incubation period cells were observed under the microscope to check for characteristic cytopathic effect in virus control wells and healthy cells in the cell control wells. After plates were adjusted to room temperature 20/40 μl Viral ToxGlo (Promega) was added to each well of the 384/96 well cell plates. Plates were incubated at room temperature, protected from light on a plate rocker for 20 minutes before measuring the luminescence on a spectrophotometer (Biotek Synergy HTX).
row,Compound,EC50 [µM]
1,"CC1COCCN1C(=O)c1cccc(Nc2ccc(C(=O)/N=C3\NCCC(=O)N3)cc2C2CC2)c1Cl (stereo not drawn) [compound 91, 4-{[2-chloro-3-(3-methylmorpholine-4-carbonyl)phenyl]amino}-3-cyclopropyl-N-[(2E)-4-oxo-1,3-diazinan-2-ylidene]benzamide]",0.002
2,"CC1CN(C(=O)c2cccc(Nc3ccc(C(=O)/N=C4\NCCC(=O)N4)cc3C3CC3)c2Cl)CCO1 (stereo not drawn) [compound 92, 4-{[2-chloro-3-(2-methylmorpholine-4-carbonyl)phenyl]amino}-3-cyclopropyl-N-[(2E)-4-oxo-1,3-diazinan-2-ylidene]benzamide]",0.002
3,"O=C1CCN/C(=N\C(=O)c2ccc(Nc3cccc(OCC4COCCO4)c3Cl)c(C3CC3)c2)N1 (stereo not drawn) [compound 93, 4-({2-chloro-3-[(1,4-dioxan-2-yl)methoxy]phenyl}amino)-3-cyclopropyl-N-[(2E)-4-oxo-1,3-diazinan-2-ylidene]benzamide]",0.013
4,"CC(C)CCS(=O)(=O)Nc1cccc(Nc2ccc(C(=O)/N=C3\NCCC(=O)N3)cc2C(C)(C)C)c1 [compound 94, 3-tert-butyl-4-{[3-(3-methylbutanesulfonamido)phenyl]amino}-N-[(2E)-4-oxo-1,3-diazinan-2-ylidene]benzamide]",0.017
5,"O=C1CCN/C(=N\C(=O)c2ccc(Nc3cccc(C(=O)N4CCOCC4)c3Cl)c(C3CC3)c2)N1 [compound 95, 4-{[2-chloro-3-(morpholine-4-carbonyl)phenyl]amino}-3-cyclopropyl-N-[(2E)-4-oxo-1,3-diazinan-2-ylidene]benzamide]",0.019
6,"Cc1c(Nc2ccc(C(=O)N=C3NCCCN3)cc2C2CC2)cccc1C(=O)NCCC(C)C [compound 96, 3-cyclopropyl-N-(1,3-diazinan-2-ylidene)-4-({2-methyl-3-[(3-methylbutyl)carbamoyl]phenyl}amino)benzamide]",0.02
7,"O=C1CCN/C(=N\C(=O)c2ccc(Nc3cccc(OCCCC4CCCCC4)c3)c(C3CC3)c2)N1 [compound 97, 4-{[3-(3-cyclohexylpropoxy)phenyl]amino}-3-cyclopropyl-N-[(2E)-4-oxo-1,3-diazinan-2-ylidene]benzamide]",0.025
8,"CC(C)NC(=O)c1cccc(Nc2ccc(C(=O)/N=C3\NCCC(=O)N3)cc2C(C)(C)C)c1 [compound 98, 3-tert-butyl-N-[(2E)-4-oxo-1,3-diazinan-2-ylidene]-4-({3-[(propan-2-yl)carbamoyl]phenyl}amino)benzamide]",0.033
9,"CC1(NC(=O)c2cccc(Nc3ccc(C(=O)N=C4NCCCN4)cc3C3CC3)c2)CC1 [compound 99, 3-cyclopropyl-N-(1,3-diazinan-2-ylidene)-4-({3-[(1-methylcyclopropyl)carbamoyl]phenyl}amino)benzamide]",0.034
10,"CC(C)NC(=O)c1ccccc1Nc1ccc(C(=O)/N=C2\NCCC(=O)N2)cc1C(C)(C)C [compound 100, 3-tert-butyl-N-[(2E)-4-oxo-1,3-diazinan-2-ylidene]-4-({2-[(propan-2-yl)carbamoyl]phenyl}amino)benzamide]",0.037
11,"CCC(C)NC(=O)c1cccc(Nc2ccc(C(=O)N=C3NCCCN3)cc2C2CC2)c1 (stereo not drawn) [compound 101, 4-({3-[(butan-2-yl)carbamoyl]phenyl}amino)-3-cyclopropyl-N-(1,3-diazinan-2-ylidene)benzamide]",0.04
12,"CC(C)NC(=O)c1cccc(Nc2ccc(C(=O)N=C3NCCCN3)cc2C2CC2)c1 [compound 102, 3-cyclopropyl-N-(1,3-diazinan-2-ylidene)-4-({3-[(propan-2-yl)carbamoyl]phenyl}amino)benzamide]",0.041
13,"O=C(N=C1NCCCN1)c1ccc(Nc2cccc(C(O)CCCC3CCCCC3)c2)c(C2CC2)c1 (stereo not drawn) [compound 103, 4-{[3-(4-cyclohexyl-1-hydroxybutyl)phenyl]amino}-3-cyclopropyl-N-(1,3-diazinan-2-ylidene)benzamide]",0.044
14,"CC(C)CCNC(=O)c1cccc(Nc2ccc(C(=O)N=C3NCCCN3)cc2C(F)(F)F)c1 [compound 104, N-(1,3-diazinan-2-ylidene)-4-({3-[(3-methylbutyl)carbamoyl]phenyl}amino)-3-(trifluoromethyl)benzamide]",0.05
15,"CC(C)CCCNC(=O)c1cccc(Nc2ccc(C(=O)N=C3NCCCN3)cc2C2CC2)c1 [compound 105, 3-cyclopropyl-N-(1,3-diazinan-2-ylidene)-4-({3-[(4-methylpentyl)carbamoyl]phenyl}amino)benzamide]",0.062
16,"O=C(N=C1NCCCN1)c1ccc(Nc2ccccc2S(=O)(=O)CCCC2CCCCC2)c(C2CC2)c1 [compound 106, 4-{[2-(3-cyclohexylpropanesulfonyl)phenyl]amino}-3-cyclopropyl-N-(1,3-diazinan-2-ylidene)benzamide]",0.067
17,"CC(C)CCCCNC(=O)c1cccc(Nc2ccc(C(=O)N=C3NCCCN3)cc2C2CC2)c1 [compound 107, 3-cyclopropyl-N-(1,3-diazinan-2-ylidene)-4-({3-[(5-methylhexyl)carbamoyl]phenyl}amino)benzamide]",0.068
18,"CC(C)NC(=O)c1cccc(Nc2ccc(C(=O)/N=C3\NCCCN3C)cc2C2CC2)c1 [compound 108, 3-cyclopropyl-N-[(2E)-1-methyl-1,3-diazinan-2-ylidene]-4-({3-[(propan-2-yl)carbamoyl]phenyl}amino)benzamide]",0.077
19,"CC(NC(=O)c1cccc(Nc2ccc(C(=O)N=C3NCCCN3)cc2C2CC2)c1)C(F)(F)F (stereo not drawn) [compound 109, 3-cyclopropyl-N-(1,3-diazinan-2-ylidene)-4-({3-[(1,1,1-trifluoropropan-2-yl)carbamoyl]phenyl}amino)benzamide]",0.079
20,"CCC(CC)NC(=O)c1cccc(Nc2ccc(C(=O)N=C3NCCCN3)cc2C2CC2)c1 [compound 110, 3-cyclopropyl-N-(1,3-diazinan-2-ylidene)-4-({3-[(pentan-3-yl)carbamoyl]phenyl}amino)benzamide]",0.08
21,"O=C(N=C1NCCCN1)c1ccc(Nc2cc(C(=O)NCCC3CCCCC3)ccn2)c(C(F)(F)F)c1 [compound 111, N-(2-cyclohexylethyl)-2-({4-[(1,3-diazinan-2-ylidene)carbamoyl]-2-(trifluoromethyl)phenyl}amino)pyridine-4-carboxamide]",0.086
22,"O=C(N=C1NCCCN1)c1ccc(Nc2cccc(OC(F)F)c2)c(C2CC2)c1 [compound 112, 3-cyclopropyl-N-(1,3-diazinan-2-ylidene)-4-{[3-(difluoromethoxy)phenyl]amino}benzamide]",0.097
23,"CC(C)CCNC(=O)c1cccc(Nc2ccc(C(=O)N=C3NCCCN3)cc2C2CC2)c1 [compound 113, 3-cyclopropyl-N-(1,3-diazinan-2-ylidene)-4-({3-[(3-methylbutyl)carbamoyl]phenyl}amino)benzamide]",0.102
24,"O=C(N=C1NCCCN1)c1ccc(Nc2cccc(C(=O)NC3CC3)c2)c(C2CC2)c1 [compound 114, 3-cyclopropyl-4-{[3-(cyclopropylcarbamoyl)phenyl]amino}-N-(1,3-diazinan-2-ylidene)benzamide]",0.11
25,"O=C(N=C1NCCCN1)c1ccc(Nc2cccc(OCCCC3CCCCC3)c2)c(C2CC2)c1 [compound 115, 4-{[3-(3-cyclohexylpropoxy)phenyl]amino}-3-cyclopropyl-N-(1,3-diazinan-2-ylidene)benzamide]",0.11
26,"CC(C)C(=O)Nc1cccc(Nc2ccc(C(=O)/N=C3\NCCC(=O)N3)cc2C2CC2)c1 [compound 116, 3-cyclopropyl-4-{[3-(2-methylpropanamido)phenyl]amino}-N-[(2E)-4-oxo-1,3-diazinan-2-ylidene]benzamide]",0.122
27,"O=C(N=C1NCCCN1)c1ccc(Nc2cccc(C(=O)NC3CCCCC3)c2)c(C2CC2)c1 [compound 117, 4-{[3-(cyclohexylcarbamoyl)phenyl]amino}-3-cyclopropyl-N-(1,3-diazinan-2-ylidene)benzamide]",0.125
28,"CC(C)CCN(C)C(=O)c1cccc(Nc2ccc(C(=O)N=C3NCCCN3)cc2C2CC2)c1 [compound 118, 3-cyclopropyl-N-(1,3-diazinan-2-ylidene)-4-({3-[methyl(3-methylbutyl)carbamoyl]phenyl}amino)benzamide]",0.126
29,"O=C(N=C1NCCCN1)c1ccc(Nc2cccc(-n3cc(CC4CCCCC4)nn3)c2)c(C2CC2)c1 [compound 119, 4-({3-[4-(cyclohexylmethyl)-1H-1,2,3-triazol-1-yl]phenyl}amino)-3-cyclopropyl-N-(1,3-diazinan-2-ylidene)benzamide]",0.13
30,"CC(C)NC(=O)c1cccc(Nc2ccc(C(=O)/N=C3\NCCC(=O)N3)cc2C2CC2)c1 [compound 120, 3-cyclopropyl-N-[(2E)-4-oxo-1,3-diazinan-2-ylidene]-4-({3-[(propan-2-yl)carbamoyl]phenyl}amino)benzamide]",0.136

# Reference: patent publication US12247018B2, “Aryl-n-aryl derivatives for treating a RNA virus infection” (ABIVAX, priority 2018, dated 2025)
